Read-outs that look alike come from different tables or passages of the source.
Tests used:
Assay type in all cases: cell-based, human
[1] = tested on: non-senescent control IMR90 ER:RAS cells; test: Nuclei count (Hoechst, high content imaging) senolytic assay, OIS model, non-senescent control cells; conditions: Homo sapiens
In short: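 IMR90 ER:RAS (p14), ±4-OHT 100 nM; cpd 10 nM–10 μM, 10-pt […], 72 h, n=3. Fix formaldehyde, Triton X-100, Hoechst 2 μg/ml final. Readout: imaged nuclei count vs untreated; ouabain positive control.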

[2] = tested on: senescent A549 cells (etoposide-induced); test: Nuclei count senolytic assay, therapy-induced senescence (TIS) model, senescent cells; conditions: Homo sapiens, A549, Senescent cells, mean, read-out: Mean % Cell Survival
In short: (§1)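 Etoposide 100 μM, 48 h, + 3 d standard media → senescent A549; untreated A549 = controls. 24 h post-seeding, cpds 10 nM–10 μM final, 10-pt […], 72 h, n=3. Fix formaldehyde, permeabilise Triton-X100, Hoechst 2 μg/ml, image, count nuclei.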

[3] = tested on: non-senescent control A549 cells; test: Nuclei count senolytic assay, TIS model, non-senescent control cells; conditions: Homo sapiens, A549, Control cells, mean, read-out: Mean % Cell Survival
In short: as §1

## COC[C@H]1C[C@@H](c2nc(-c3ccc4c(c3)COc3cc5c(ccc6nc([C@@H]7CC[C@H](C)N7C(=O)[C@@H](NC(=O)OC)C(C)C)[nH]c65)cc3-4)c[nH]2)N(C(=O)[C@H](NC(=O)OC)c2ccccc2)C1 [Velpatasvir, velpatasvir, reference compound]
[1]; IMR-90, 72 h, Control, log (dose) [M] -5, 72 h, mean n=3 (Fig 3C), read-out: Mean % Cell Survival
  viability at 10 µM: 119%
[1]; IMR-90, 72 h, Control, log (dose) [M] -5.33, 72 h, mean n=3 (Fig 3C), read-out: Mean % Cell Survival
  viability at 4.677 µM: 116%
[1]; IMR-90, 72 h, Control, log (dose) [M] -5.66, 72 h, mean n=3 (Fig 3C), read-out: Mean % Cell Survival
  viability at 2.188 µM: 113%
[1]; IMR-90, 72 h, Control, log (dose) [M] -6, 72 h, mean n=3 (Fig 3C), read-out: Mean % Cell Survival
  viability at 1 µM: 115%
[1]; IMR-90, 72 h, Control, log (dose) [M] -6.33, 72 h, mean n=3 (Fig 3C), read-out: Mean % Cell Survival
  viability at 0.4677 µM: 86.1%
[1]; IMR-90, 72 h, Control, log (dose) [M] -6.66, 72 h, mean n=3 (Fig 3C), read-out: Mean % Cell Survival
  viability at 0.2188 µM: 99.9%
[1]; IMR-90, 72 h, Control, log (dose) [M] -7, 72 h, mean n=3 (Fig 3C), read-out: Mean % Cell Survival
  viability at 0.1 µM: 98.3%
[1]; IMR-90, 72 h, Control, log (dose) [M] -7.33, 72 h, mean n=3 (Fig 3C), read-out: Mean % Cell Survival
  viability at 0.04677 µM: 106%
[1]; IMR-90, 72 h, Control, log (dose) [M] -7.66, 72 h, mean n=3 (Fig 3C), read-out: Mean % Cell Survival
  viability at 0.02188 µM: 110%
[1]; IMR-90, 72 h, Control, log (dose) [M] -8, 72 h, mean n=3 (Fig 3C), read-out: Mean % Cell Survival
  viability at 0.01 µM: 96.2%
[1]; IMR-90, Control cells, log (dose) [M] -5, individual replicates, SUP FIG 4C, read-out: % Cell Survival
  viability at 10 µM: 113%
[1]; IMR-90, Control cells, log (dose) [M] -6.66, individual replicates, SUP FIG 4C, read-out: % Cell Survival
  viability at 0.2188 µM: 91.6%
[1]; IMR-90, Control cells, log (dose) [M] -7.33, individual replicates, SUP FIG 4C, read-out: % Cell Survival
  viability at 0.04677 µM: 101%
[1]; IMR-90, Control, log (dose) [M] -5, read-out: % Cell Survival
  viability at 10 µM: 82.9%
[1]; IMR-90, Control, log (dose) [M] -5.33, read-out: % Cell Survival
  viability at 4.68 µM: 85.2%
[1]; IMR-90, Control, log (dose) [M] -5.66, read-out: % Cell Survival
  viability at 2.19 µM: 80.3%
[1]; IMR-90, Control, log (dose) [M] -6, read-out: % Cell Survival
  viability at 1 µM: 80.7%
[1]; IMR-90, Control, log (dose) [M] -6.66, read-out: % Cell Survival
  viability at 0.219 µM: 86%
[1]; IMR-90, Control, log (dose) [M] -7, read-out: % Cell Survival
  viability at 0.1 µM: 91.2%
[1]; IMR-90, Control, log (dose) [M] -7.33, read-out: % Cell Survival
  viability at 0.04677 µM: 89.7%
[1]; IMR-90, Control, log (dose) [M] -7.66, read-out: % Cell Survival
  viability at 0.0219 µM: 95.3%
[1]; IMR-90, Control, log (dose) [M] -8, read-out: % Cell Survival
  viability at 0.01 µM: 97.1%
[2]; log (dose) [M] -5
  viability at 10 µM: 114%
[2]; log (dose) [M] -5.33
  viability at 4.68 µM: 105%
[2]; log (dose) [M] -5.66
  viability at 2.19 µM: 120%
[2]; log (dose) [M] -6
  viability at 1 µM: 122%
[2]; log (dose) [M] -6.33
  viability at 0.468 µM: 122%
[2]; log (dose) [M] -6.66
  viability at 0.219 µM: 113%
[2]; log (dose) [M] -7
  viability at 0.1 µM: 112%
[2]; log (dose) [M] -7.33
  viability at 0.0468 µM: 115%
[2]; log (dose) [M] -7.66
  viability at 0.0219 µM: 91.3%
[2]; log (dose) [M] -8
  viability at 0.01 µM: 104%
[3]; log (dose) [M] -5
  viability at 10 µM: 80.9%
[3]; log (dose) [M] -5.33
  viability at 4.68 µM: 84.4%
[3]; log (dose) [M] -5.66
  viability at 2.19 µM: 80.3%
[3]; log (dose) [M] -6
  viability at 1 µM: 52.9%
[3]; log (dose) [M] -6.33
  viability at 0.468 µM: 93.4%
[3]; log (dose) [M] -6.66
  viability at 0.219 µM: 28.7%
[3]; log (dose) [M] -7
  viability at 0.1 µM: 88.2%
[3]; log (dose) [M] -7.33
  viability at 0.0468 µM: 89.2%
[3]; log (dose) [M] -7.66
  viability at 0.0219 µM: 92.1%
[3]; log (dose) [M] -8
  viability at 0.01 µM: 96.1%
